Reference: patent publication US20250170266A1 (ZYMEWORKS BC INC., priority 2022, published 2025)
pEC50: −log10 of the molar value. Read-outs that look alike come from different tables or passages of the source.

Assays:
Format in all cases: cell-based
hTLR7 = biological target: T1, hTLR7 (Homo sapiens, UniProt Q9NYK1); assay: Reporter Gene Assay (RGA), HEK-Blue hTLR7 reporter cells, SEAP readout; conditions: overnight incubation, SEAP absorbance 620 nm
T1 construct: host or cells: HEK-Blue hTLR7 reporter cells (HEK293-derived, own knowledge)
T1 sequence (Q9NYK1 27-1049): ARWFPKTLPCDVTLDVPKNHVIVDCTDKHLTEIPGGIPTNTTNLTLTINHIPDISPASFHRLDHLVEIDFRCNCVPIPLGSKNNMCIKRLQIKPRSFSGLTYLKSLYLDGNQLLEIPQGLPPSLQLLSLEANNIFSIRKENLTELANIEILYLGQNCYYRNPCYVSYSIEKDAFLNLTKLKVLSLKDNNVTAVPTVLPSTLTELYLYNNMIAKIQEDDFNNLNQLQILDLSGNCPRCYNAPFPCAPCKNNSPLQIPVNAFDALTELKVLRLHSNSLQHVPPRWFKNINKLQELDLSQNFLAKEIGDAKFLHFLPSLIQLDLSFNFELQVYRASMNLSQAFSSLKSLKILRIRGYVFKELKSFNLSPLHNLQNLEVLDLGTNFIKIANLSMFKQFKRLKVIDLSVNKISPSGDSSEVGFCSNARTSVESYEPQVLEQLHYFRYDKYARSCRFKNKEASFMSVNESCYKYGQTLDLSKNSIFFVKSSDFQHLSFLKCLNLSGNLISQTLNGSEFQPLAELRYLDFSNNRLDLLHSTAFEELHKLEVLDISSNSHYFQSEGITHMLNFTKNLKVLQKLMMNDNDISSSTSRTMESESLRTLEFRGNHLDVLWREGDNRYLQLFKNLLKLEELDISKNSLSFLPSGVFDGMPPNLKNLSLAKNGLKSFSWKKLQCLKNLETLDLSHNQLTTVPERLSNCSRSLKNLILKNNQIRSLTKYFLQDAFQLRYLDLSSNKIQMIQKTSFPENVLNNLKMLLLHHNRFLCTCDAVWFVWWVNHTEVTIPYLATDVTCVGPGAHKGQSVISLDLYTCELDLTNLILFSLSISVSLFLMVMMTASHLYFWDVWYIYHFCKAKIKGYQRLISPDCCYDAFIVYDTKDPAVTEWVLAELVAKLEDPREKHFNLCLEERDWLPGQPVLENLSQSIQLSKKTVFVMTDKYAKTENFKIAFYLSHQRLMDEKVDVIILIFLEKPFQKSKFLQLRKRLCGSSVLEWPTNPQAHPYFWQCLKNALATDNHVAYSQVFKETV
In short: (§1)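 HEK-Blue reporter cells expressing human or mouse TLR7 (1.5×10^4 cells) were treated with an 11-point, 4-fold compound titration from 15 pM in HEK-Blue Detection medium. Incubation was overnight at 37° C with 5% CO2. Secreted embryonic alkaline phosphatase was read as absorbance at 620 nm.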

mTLR7 = biological target: T2, mTLR7 (Mus musculus, UniProt P58681); assay: Reporter Gene Assay (RGA), HEK-Blue mTLR7 reporter cells, SEAP readout; conditions: overnight incubation, SEAP absorbance 620 nm
T2 construct: host or cells: HEK-Blue mTLR7 reporter cells (HEK293-derived, own knowledge)
T2 sequence (P58681 27-1050): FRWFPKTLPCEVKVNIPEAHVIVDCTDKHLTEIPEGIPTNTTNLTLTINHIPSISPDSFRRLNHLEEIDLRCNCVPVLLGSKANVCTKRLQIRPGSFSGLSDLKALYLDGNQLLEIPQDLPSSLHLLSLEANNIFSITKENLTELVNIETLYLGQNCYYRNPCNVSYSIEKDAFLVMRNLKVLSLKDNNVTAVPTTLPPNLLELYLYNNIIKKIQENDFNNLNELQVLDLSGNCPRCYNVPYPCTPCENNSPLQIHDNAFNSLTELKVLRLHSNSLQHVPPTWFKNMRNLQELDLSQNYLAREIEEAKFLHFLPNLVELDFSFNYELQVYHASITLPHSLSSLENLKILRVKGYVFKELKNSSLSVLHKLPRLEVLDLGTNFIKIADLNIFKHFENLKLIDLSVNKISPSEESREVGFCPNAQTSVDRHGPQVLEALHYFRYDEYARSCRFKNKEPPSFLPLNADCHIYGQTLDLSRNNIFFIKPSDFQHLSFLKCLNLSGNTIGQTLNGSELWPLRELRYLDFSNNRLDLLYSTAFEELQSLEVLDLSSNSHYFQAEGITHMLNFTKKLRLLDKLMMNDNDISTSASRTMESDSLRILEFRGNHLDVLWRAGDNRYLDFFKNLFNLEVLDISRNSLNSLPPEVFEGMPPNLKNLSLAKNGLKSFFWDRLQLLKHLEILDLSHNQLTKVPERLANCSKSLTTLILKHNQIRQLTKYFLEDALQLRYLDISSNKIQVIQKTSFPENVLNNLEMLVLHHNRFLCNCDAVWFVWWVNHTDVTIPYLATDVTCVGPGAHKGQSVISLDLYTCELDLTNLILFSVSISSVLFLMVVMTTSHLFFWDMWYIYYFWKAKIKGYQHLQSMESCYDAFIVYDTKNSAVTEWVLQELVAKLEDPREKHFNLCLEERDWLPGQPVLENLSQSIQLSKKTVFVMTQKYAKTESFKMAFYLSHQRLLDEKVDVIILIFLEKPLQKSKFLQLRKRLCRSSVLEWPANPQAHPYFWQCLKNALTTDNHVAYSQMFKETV
In short: as §1

[1] = tested on: Human peripheral blood mononuclear cells (PBMCs); assay: Human PBMC Assay, cytokine release (HTRF); conditions: 24 hours; for pEC50: PBMC
In short: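 Cryopreserved human PBMCs, rested overnight with 10 ng/ml hIL3, then 300,000 cells/well treated 24 h at 37° C with compound (4-fold, 11-point titration from 15 μM) in RPMI+10% FBS. Supernatant hIL6, hTNFα and hIFNα measured by HTRF; growth medium as negative control.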

Mouse splenocytes = assay: Mouse Splenocyte Assay, cytokine release (HTRF); conditions: Splenocyte, 24 hours, mIL6 in supernatant, read-out: Splenocyte IL6 EC50
In short: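 Splenocytes from female balb/c nude mice, thawed, 100,000 per well in RPMI + 10% FBS. Exposed for 24 h at 37 °C to a 4-fold 11-point compound titration from 15 μM; supernatant mIL6 and mTNFα measured by HTRF.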

[2] = hIFNα in supernatant, EC50 values approximated and divided into groups, read-out: PBMC IFNa EC50
[3] = hIL6 in supernatant, read-out: PBMC IL6 EC50

Row | Compound | pEC50 (hTLR7) | pEC50 (mTLR7) | pEC50 [1, 2] | pEC50 [1, 3] | pEC50 (Mouse splenocytes) | PBMC IL6 EC50 (nM) ([1]; hIL6 in supernatant)
1 | CCOc1nc(N)c2nc(O)n(Cc3ccc(CN(CC(=O)O)CC(=O)O)cc3OC)c2n1 [Compound 120, 2,2′-((4-((6-amino-2-ethoxy-8-hydroxy-9H-purin-9-yl)methyl)-3-methoxy-benzyl)azanediyl) diacetic Acid] | 7.48 | 6.20 | < 8.00 | 6.28 | 6.05 | 
2 | CCOc1nc(N)c2nc(O)n(Cc3ccc(CNCCCCCC(=O)O)cc3OC)c2n1 [Compound 115, 6-((4-((6-amino-2-ethoxy-8-hydroxy-9H-purin-9-yl)methyl)-3-methoxybenzyl)-amino)hexanoic Acid] | 6.56 | 5.80 | < 8.00 | 5.55 | 5.49 | 
3 | CCCCOc1nc(N)c2nc(O)n(Cc3ccc(CN4CCC(CCN)CC4)cc3OC)c2n1 [Compound 158, 6-amino-9-(4-((4-(2-aminoethyl)piperidin-1-yl)methyl)-2-methoxybenzyl)-2-butoxy-9H-purin-8-ol] | 10.00 | 10.00 | 8.00 to 9.00 |  | 8.49 | 
4 | CCOc1nc(N)c2nc(O)n(Cc3ccc(CNCC(C)(C)O)cc3OC)c2n1 [Compound 101, 6-amino-2-ethoxy-9-(4-(((2-hydroxy-2-methylpropyl)amino)methyl)-2-methoxybenzyl)-9H-purin-8-ol] | 7.24 | 7.32 | 9.00 to 10.00 | 6.90 | 6.81 | 
5 | CCOc1nc(N)c2nc(O)n(Cc3ccc(CN(CC)CC)cc3OC)c2n1 [Compound 102, 6-amino-9-(4-((diethylamino)methyl)-2-methoxybenzyl)-2-ethoxy-9H-purin-8-ol] | 8.70 | 8.30 | > 10.00 | 7.16 | 7.00 | 
6 | CCOc1nc(N)c2nc(O)n(Cc3ccc(CN[C@H](CO)[C@@H](C)CC)cc3OC)c2n1 [Compound 122, 6-amino-2-ethoxy-9-(4-((((2S,3S)-1-hydroxy-3-methylpentan-2-yl)amino)-methyl)-2-methoxybenzyl)-9H-purin-8-ol] | 8.05 | 7.99 | 9.00 to 10.00 | 6.55 | 7.18 | 
7 | CCOc1nc(N)c2nc(O)n(Cc3ccc(CN4CCC(CN)CC4)cc3OC)c2n1 [Compound 132, 6-amino-9-(4-((4-(aminomethyl)piperidin-1-yl)methyl)-2-methoxybenzyl)-2-ethoxy-9H-purin-8-ol] | 8.24 | 7.19 | < 8.00 | 6.93 | 6.63 | 
8 | CCOc1nc(N)c2nc(O)n(Cc3ccc(CNCCN)cc3OC)c2n1 [Compound 111, 6-amino-9-(4-(((2-aminoethyl)amino)methyl)-2-methoxybenzyl)-2-ethoxy-9H-purin-8-ol] | 6.99 | 7.06 | 8.00 to 9.00 | 6.27 | 7.68 | 
9 | CCCCOc1nc(N)c2nc(O)n(Cc3ccc(N4CCC5(CCNCC5)CC4)nc3)c2n1 [Compound 168, 9-((6-(3,9-diazaspiro[5.5]undecan-3-yl)pyridin-3-yl)methyl)-6-amino-2-butoxy-9H-purin-8-ol] | 10.00 | 8.24 | < 8.00 |  | 7.45 | inactive
10 | CCOc1nc(N)c2nc(O)n(Cc3ccc(CNCCCCCO)cc3OC)c2n1 [Compound 103, 6-amino-2-ethoxy-9-(4-(((5-hydroxypentyl)amino)methyl)-2-methoxy-benzyl)-9H-purin-8-ol] | 6.86 | 7.56 | 9.00 to 10.00 | 5.03 | 5.88 | 
11 | CCCCOc1nc(N)c2nc(O)n(Cc3ccc(CN4CCC(CN)CC4)cc3OC)c2n1 [Compound 156, 6-amino-9-(4-((4-(aminomethyl)piperidin-1-yl)methyl)-2-methoxybenzyl)-2-butoxy-9H-purin-8-ol] | 9.52 | 9.52 | < 8.00 |  | 8.60 | 
12 | CCCCOc1nc(N)c2nc(O)n(Cc3ccc(CCCNC4CCNCC4)cc3OC)c2n1 [Compound 176, 6-amino-2-butoxy-9-(2-methoxy-4-(3-(piperidin-4-ylamino)propyl)benzyl)-9H-purin-8-ol] | > 10.00 | > 10.00 | < 8.00 |  | 8.24 | inactive
